Values after ≈ are worked out from the molar mass of the structure shown.

The first series relates to E. coli. Description: Sensitization of E. coli to erythromycin (sensitization fold from IC90, OD600, 20 h). In kind it is cell-based, Escherichia coli. The following applies: erythromycin; compound at 10 μM. Here is the method: E. coli bacteria were cultured in Miller's broth at 37° C. overnight prior to treatment. B. subtilis bacteria were cultured in nutrient broth at 37° C. overnight prior to treatment. […] Bacterial density was measured based on OD600.
Turning to `CCCCc1cc(OCc2ccc(C(=N)N)cc2)cc(OCc2ccc(C(=N)N)cc2)c1` [drawing 749], the “SF (E. coli) at 10 μM” value was found to be 10 μM > 32 fold.

For the molecule `N=C(N)c1ccc(COc2cc(OCc3ccc(C(=N)N)cc3)cc(C(F)(F)F)c2)cc1` [drawing 750], the “SF (E. coli) at 10 μM” value is reported as 10 μM > 32 fold.

Staying with this series, now noted: erythromycin; compound at 20 μM.
`CO/N=C(\N)c1ccc(OCc2cc(C)cc(COc3ccc(/C(N)=N\OC)cc3)c2)cc1` [drawing 748]: the “SF (E. coli) at 20 μM” value is reported as 4-fold at 20 μM.

The series is the same for the next values; noted with them: erythromycin; compound at 25 μM; NA=no activity.
For `Cc1cc(COc2ccc(C(=N)N)cc2F)cc(COc2ccc(C(=N)N)cc2F)c1` [drawing 747], the “SF (E. coli) at 25 μM” value was 64-fold at 25 μM.

For the next series, the system named is M. smegmatis. Kind of series: Antibacterial activity against M. smegmatis (MIC, OD600, 48 h). To be noted: Mycolicibacterium smegmatis, MIC = 90% growth inhibition, 7H9 media, NA=no activity. The format is cell-based, Mycobacterium smegmatis.
As for `N=C(N)c1ccc2nc(-c3ccc(OCC(F)(F)C(F)(F)COc4ccc(-c5nc6ccc(C(=N)N)cc6[nH]5)cc4)cc3)[nH]c2c1` [drawing 801], it took 6 µM (≈ 3.78 µg/mL) to inhibit growth (MIC). In other words, the single-digit micromolar range.

`N=C(N)c1ccc(OCc2ccc(-c3ccc(C(=N)N)cc3)cc2)cc1` [drawing 804]: the MIC turned out to be 6 µM (≈ 2.07 µg/mL).

On to `N=C(N)c1ccc(OCc2cccc(COc3ccc(C(=N)N)cc3F)c2F)c(F)c1` [drawing 805], for which the MIC came out at 12 µM (≈ 5.14 µg/mL). This MIC lies about 2-fold higher than the previous one.

`N=C(N)c1ccc(OCc2cccc(COc3ccc(C(=N)N)cc3)c2F)cc1` [drawing 806] displayed an MIC of 12 µM (≈ 4.71 µg/mL).

For `Cc1cc(COc2ccc(C(=N)N)cc2)cc(COc2ccc(C(=N)N)cc2)c1` [drawing 809], the MIC was determined as 12 µM (≈ 4.66 µg/mL).

As for `c1cc(COc2ccc(C3=NCCN3)cc2)cc(COc2ccc(C3=NCCN3)cc2)c1` [drawing 810], the MIC amounted to 12 µM (≈ 5.12 µg/mL).

Molecule `Fc1c(COc2ccc(C3=NCCN3)cc2)cccc1COc1ccc(C2=NCCN2)cc1` [drawing 811] displayed an MIC of 25 µM (≈ 11.1 µg/mL).

`COc1cc(C2=NCCN2)ccc1OCc1cccc(COc2ccc(C3=NCCN3)cc2OC)c1F` [drawing 813] displayed an MIC of 25 µM (≈ 12.6 µg/mL).

On to `N=C(N)c1ccc(OCc2ccc(COc3ccc(C(=N)N)cc3)cc2)cc1` [drawing 814], for which inhibition of growth (MIC) required 3 µM (≈ 1.12 µg/mL).

In the case of `Cc1cc(COc2ccc(C(=N)NC(C)C)cc2)cc(COc2ccc(C(=N)NC(C)C)cc2)c1` [drawing 815], inhibition of growth (MIC) required 3 µM (≈ 1.42 µg/mL). This lies in the single-digit micromolar range.

The molecule `COc1cc(C(=N)N)ccc1OCc1cc(C)cc(COc2ccc(C(=N)N)cc2OC)c1` [drawing 816] came in with an MIC of 25 µM (≈ 11.2 µg/mL).

The molecule `COc1cc(C(=N)N)ccc1OCc1cccc(COc2ccc(C(=N)N)cc2OC)c1F` [drawing 817] returned an MIC of 6 µM (≈ 2.71 µg/mL).

Regarding `CC(C)(C)c1cc(COc2ccc(C(=N)N)cc2)cc(COc2ccc(C(=N)N)cc2)c1` [drawing 818], the MIC amounted to 6 µM (≈ 2.58 µg/mL).

For `Cn1c(-c2ccc(-c3ccc(C(=N)N)cc3)s2)nc2cc(-c3ccc(C(=N)N)cc3)ccc21` [drawing 819], the MIC stood at 6 µM (≈ 2.7 µg/mL).

As to `N=C(N)c1ccc(OCc2cccc(COc3ccc(C(=N)N)cc3)c2)cc1` [drawing 821], inhibition of growth (MIC) required 12 µM (≈ 4.49 µg/mL).

`Cc1cc(-c2nc3cc(C(=N)N)ccc3n2C)sc1-c1ccc(OCCCCOc2ccc(C(=N)N)cc2)cc1` [drawing 822] came in with an MIC of 3 to 6 µM (≈ 1.66 to 3.32 µg/mL).

`N=C(N)c1ccc(OCc2cccc(COc3ccc(C(=N)N)cc3)n2)cc1` [drawing 823]: 12 µM (≈ 4.51 µg/mL) was the least that counted as inhibitory (MIC).

`N=C(N)c1ccc(OCCCCCCOc2ccc(C(=N)N)cc2)cc1` [drawing 825]: the MIC turned out to be 6 µM (≈ 2.13 µg/mL).

Regarding `Cc1cc(COc2ccc(C3=NCCN3)cc2)cc(COc2ccc(C3=NCCN3)cc2)c1` [drawing 826], inhibition of growth (MIC) required 25 µM (≈ 11 µg/mL).

Molecule `N=C(N)c1ccc(OCc2cc(COc3ccc(C(=N)N)cc3)cc(COc3ccc(C(=N)N)cc3)c2)cc1` [drawing 828] registered an MIC of 3 to 6 µM (≈ 1.57 to 3.14 µg/mL).

The molecule `Cc1cc(CCc2ccc(C(=N)N)cc2)cc(CCc2ccc(C(=N)N)cc2)c1` [drawing 829] displayed an MIC of 6 to 12 µM (≈ 2.31 to 4.61 µg/mL).

`CC(C)NC(=N)c1ccc(OCc2cccc(COc3ccc(C(=N)NC(C)C)cc3)c2F)cc1` [drawing 830] came in with an MIC of 3 µM (≈ 1.43 µg/mL).

`CC(C)NC(=N)c1ccc(OCc2cccc(COc3ccc(C(=N)NC(C)C)cc3F)c2F)c(F)c1` [drawing 831]: it took 12 µM (≈ 6.15 µg/mL) to inhibit growth (MIC).

A further series relates to H9c2 cells. Kind of series: Cytotoxicity in H9c2 cells (CCK-8, 24 h). In kind it is cell-based.
Details: not given
Here is the method:
H9c2 (ATCC®R-1446™) cells Were used in the studies. The H9c2 cells were maintained in DMEM (Dulbeccoa's Modified Eagle's Medium) supplemented with 10% fetal bovine serum (Mid Sci; S01520HI) and 1% penicillin-streptomycin (Sigma-Aldrich; P4333) at 37° C. with 5% CO2. The H9c2 cells were seeded in 96-well plate one day before the experiment. Different concentrations of di-amidine compounds were added into the H9c2 cells. The cells were then incubated with the compounds for 24 h at 37° C. with 5% CO2. The cell viability was tested by the CCK-8. Specifically, after 24 h incubation, 10 μL CCK-8 was added to each well. After 3 h incubation at 37° C., the absorbance at 450 nm was recorded by a plate reader. The cytoxicity in HEK293 and 3T3 cells was measured using the same procedure. Data is shown in Table 5 (NT=not toxic; --=not tested).
As for `N=C(N)c1ccc(OCc2cccc(COc3ccc(C(N)=O)cc3)n2)cc1`, the “H9c2 CC^50” value was 50 µM.

`Fc1cc(C2=NCCN2)ccc1OCc1cccc(COc2ccc(C3=NCCN3)cc2F)c1F`: the “H9c2 CC^50” value was determined as 50 µM.

Turning to `Cc1cc(COc2ccc(NC(=N)N)cc2)cc(COc2ccc(NC(=N)N)cc2)c1`, the “H9c2 CC^50” value came to 100 µM.

Regarding `N=C(N)c1ccc2nc(-c3ccc(OCC(F)(F)C(F)(F)COc4ccc(-c5nc6ccc(C(=N)N)cc6[nH]5)cc4)cc3)[nH]c2c1` [drawing 847], the “H9c2 CC^50” value came to 50 µM.

On to `Cn1c(-c2ccc(-c3ccc(C(=N)N)cc3)s2)nc2cc(-c3ccc(C(=N)N)cc3)ccc21` [drawing 848], for which the “H9c2 CC^50” value worked out at 50 µM.

`N=C(N)c1ccc2[nH]c(-c3ccc(-c4ccc(-c5ccc(-c6ccc(-c7nc8cc(C(=N)N)ccc8[nH]7)cc6)s5)s4)cc3)nc2c1` [drawing 849]: the “H9c2 CC^50” value was 50 µM.

As to `Cn1c(CCCCc2nc3ccc(C(=N)N)cc3n2C)nc2ccc(C(=N)N)cc21` [drawing 850], the “H9c2 CC^50” value stood at 50 µM.

`N=C(N)c1ccc(Oc2ccc(C(=N)N)cc2)cc1` [drawing 851]: the “H9c2 CC^50” value was 50 µM.

Regarding `N=C(N)c1ccc(OCc2ccc(-c3ccc(C(=N)N)cc3)cc2)cc1` [drawing 852], the “H9c2 CC^50” value amounted to 50 µM.

For `N=C(N)c1ccc(OCc2cccc(COc3ccc(C(=N)N)cc3)c2)cc1` [drawing 853], the “H9c2 CC^50” value stood at 50 µM.

With `N=C(N)c1ccc(OCCCCCCCCOc2ccc(C(=N)N)cc2)cc1` [drawing 855], the “H9c2 CC^50” value is less than 5 µM.

As for `Cc1cc(-c2nc3cc(C(=N)N)ccc3n2C)sc1-c1ccc(OCCCCOc2ccc(C(=N)N)cc2)cc1` [drawing 856], the “H9c2 CC^50” value worked out at 50 µM.

As to `N=C(N)c1ccc(OCc2cccc(COc3ccc(C(=N)N)cc3)n2)cc1` [drawing 857], the “H9c2 CC^50” value was 50 µM.

On to `N=C(N)c1ccc(OCOc2ccc(C(=N)N)cc2)cc1` [drawing 858], for which the “H9c2 CC^50” value worked out at 50 µM.

As for `N=C(N)c1ccc(OCc2cccc(COc3ccc(C(=N)N)cc3)c2F)cc1` [drawing 859], the “H9c2 CC^50” value was 50 µM.

As for `Cn1c(CCc2nc3cc(C(=N)N)ccc3n2C)nc2cc(C(=N)N)ccc21` [drawing 860], the “H9c2 CC^50” value came to 50 µM.

Regarding `N=C(N)c1ccc(OCCCCCCOc2ccc(C(=N)N)cc2)cc1` [drawing 862], the “H9c2 CC^50” value was less than 5 µM.

In the case of `c1cc(COc2ccc(C3=NCCN3)cc2)cc(COc2ccc(C3=NCCN3)cc2)c1` [drawing 865], the “H9c2 CC^50” value is less than 12 µM.

Regarding `Fc1c(COc2ccc(C3=NCCN3)cc2)cccc1COc1ccc(C2=NCCN2)cc1` [drawing 866], the “H9c2 CC^50” value stood at 25 µM.

Regarding `COc1cc(C2=NCCN2)ccc1OCc1cccc(COc2ccc(C3=NCCN3)cc2OC)c1F` [drawing 868], the “H9c2 CC^50” value worked out at 50 µM.

Regarding `COc1cc(C(=N)N)ccc1OCc1cccc(COc2ccc(C(=N)N)cc2OC)c1F` [drawing 872], the “H9c2 CC^50” value stood at 12.5 µM.

`CC(C)(C)c1cc(COc2ccc(C(=N)N)cc2)cc(COc2ccc(C(=N)N)cc2)c1` [drawing 873]: the “H9c2 CC^50” value was 25 µM.

For the molecule `CC(C)(C)c1cc(COc2ccc(C(=N)N)cc2F)cc(COc2ccc(C(=N)N)cc2F)c1` [drawing 883], the “H9c2 CC^50” value was determined as 25 µM.

In the case of `CCCCc1cc(OCc2ccc(C(=N)N)cc2)cc(OCc2ccc(C(=N)N)cc2)c1` [drawing 887], the “H9c2 CC^50” value is 25 µM.

Turning to `N=C(N)c1ccc(COc2cc(OCc3ccc(C(=N)N)cc3)cc(C(F)(F)F)c2)cc1` [drawing 888], the “H9c2 CC^50” value is 50 µM.

These data come from patent publication US12595251B2, “Amidines and amidine analogs for the treatment of bacterial infections and potentiation antibiotics” (GEORGIA STATE UNIVERSITY RESEARCH FOUNDATION, INC., priority 2018, dated 2026).
